Experiments:
[1] = system: lung cancer cell lines with FGFR1 gene amplification; assay: Tritiated thymidine incorporation, FGFR1 gene amplified lung cancer cell lines (average); format: cell-based, human; conditions: across all FBS concentrations, vs control ECD-Fc
Protocol: To determine the impact of FGFR1-ECD.339-Fc on lung cancer cell lines in tissue culture, cells were plated in a Microtest™ 96-well tissue culture plate (Becton Dickenson, Franklin Lakes, N.J.) at a density of 5×10^3 cells/well in medium containing 10%, 1% or 0.1% FBS in the presence or absence of 15 μg/ml FGFR1-ECD.339-Fc (SEQ ID NO: 6) or an unrelated ECD-Fc fusion protein (as a negative control). Plates were incubated at 37° C. at 5% CO2 for 4 days and then assayed to determine the impact of FGFR1-ECD.339-Fc on cell number and proliferation.
To determine the impact of FGFR1-ECD.339-Fc on cell proliferation the tritiated thymidine ([3H]-TdR) incorporation assay was employed. […] After 16-h exposure, tritiated thymidine incorporation was assessed. […] Thymidine incorporation was determined as counts per minute (cpm) on a Topcount NXT (PerkinElmer) scintillation counter. Results were expressed as cpm/well.
The impact of FGFR1-ECD.339-Fc on cell proliferation as assessed by tritiated thymidine incorporation was also compared between FGFR1 gene amplified and non-amplified lung cancer cell lines (FIG. 4). An average percent reduction in cell proliferation with FGFR1-ECD.339-Fc addition was determined across all FBS concentrations examined for each FGFR1 gene amplified cell line and the panel of non-FGFR1 gene amplified cell lines indicated above. […]

HCT116 xenograft model = assay: HCT116 xenograft tumor growth inhibition; format: in vivo, mouse; conditions: Colon HCT116; IP 15 mg/kg BIW; FGFR1 non-amplified; P ns
Protocol: Percentage tumor growth inhibition by FGFR1-ECD.339-Fc was determined by area-under-the-curve (AUC) analysis of xenograft growth curves treated with FGFR1-ECD.339-Fc compared to albumin control. […] The difference in FGFR1-ECD.339-Fc-mediated xenograft inhibition between FGFR1 gene amplified and non-amplified lung cancer xenograft models was statistically significant (P=0.0333).
Also shown in Table 5 are the dosing schedule for FGFR1-ECD.339-Fc in a mouse xenograft model, the percent tumor growth inhibition (TGI (%)) and the statistical significance of the tumor growth inhibition (P Value), as well as whether the FGFR1 gene is amplified in the cell line.
An exemplary xenograft experiment is as follows. For Caki-1 and MSTO-211H, five million cells were implanted subcutaneously over the right flank of SCID mice (N=10 per group). […] Representative tumor growth curves are shown for a renal cancer, Caki-1, (A), and mesothelioma, MSTO-211H, (B) xenograft cancer model. […] In the MSTO-211H mesothelioma model, FGFR1-ECD.339-Fc administration reduced tumor growth (FIG. 16b) by 64% (P<0.0001).

VEGF-A = target: T1, VEGF-A (Homo sapiens, UniProt P15692); assay: SPR interaction with VEGF-A; format: binding; conditions: SPR analysis
T1 sequence (P15692 27-191 isoform P15692-4): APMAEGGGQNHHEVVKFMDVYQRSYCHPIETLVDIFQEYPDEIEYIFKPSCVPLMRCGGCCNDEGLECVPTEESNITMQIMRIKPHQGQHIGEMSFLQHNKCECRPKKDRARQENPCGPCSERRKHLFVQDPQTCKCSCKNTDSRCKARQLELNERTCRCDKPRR

DMS114 cells = assay: CellTiter-Glo cell number, DMS114; format: cell-based, human; conditions: 15 μg/ml, 4 days, 10%, 1% or 0.1% FBS
Text: A panel of lung cancer cell lines displaying potential amplification of the FGFR1 gene was identified using CONAN (http://www.sanger.ac.uk/cgi-bin/genetics/CGP/conan/search.cgi) and Tumorscape (http://www.broadinstitute.org/tumorscape/pages/portalHomejsf). CONAN and Tumorscape represent public data mining tools to extract gene copy number information for predefined or user defined loci across the SNP6.0 dataset of cancer. Lung cancer cell lines DMS53, DMS114, NCI-H1581 and NCI-H520 were identified as having potential amplification of the FGFR1 gene (>4 copies/cell) and were selected for further analysis. Human small cell lung cancer (SCLC) cell lines DMS53 and DMS114 were purchased from ATCC (Manassas, Va.; Cat. No. CRL-2062; Cat. No. CRL-2066, respectfully). The cells were cultured in Waymouth's MB 752/1 medium+10% FBS+2 mM L-glutamine at 37° C. in a humidified atmosphere with 5% CO2. […]
To determine cell number the CellTiter-Glo® Luminescent Cell Viability Assay (Promega, Madison, Wis.) was employed. CellTiter-Glo® is a homogeneous method of determining the number of viable cells in culture based on quantitation of the ATP present, an indicator of metabolically active cells. […] Luminescence was then determined on an EnVision™ Multilabel Plate Reader (PerkinElmer, Boston, Mass.) with a 0.2 second integration time. Results were expressed as relative light units (RLU)/well.

direct interaction with VEGF-A (VEGF-A): does not directly interact
Substance: FGFR1-ECD.339-Fc: human FGFR1 extracellular domain ending at amino acid 339 fused to an Fc; SEQ ID NO: 6 (mature form), SEQ ID NO: 5 with signal peptide
average reduction in CPM (tritiated thymidine incorporation) [1]: 62.75%
TGI (%) (HCT116 xenograft model): 0%
cell number (CellTiter-Glo) (DMS114 cells): reduced

From patent US10537611B2, “Methods of treating lung cancer” (Five Prime Therapeutics, Inc., priority 2011, dated 2020)
